According to PubChem BioAssay (NCI):
Values joined by “and” are separate entries in the source; they are usually repeats but may differ in a detail not shown here. Identical values can stand only once.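 Interpolation was linear, between the two tested concentrations surrounding the appropriate level; five concentrations were tested over 48 hours in 96-well plates. GI50: concentration for 50% inhibition of growth. TGI: total growth inhibition.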

Assays:
Assay in all cases: NCI tumour cell line growth inhibition, 48 h
OVCAR-8 ovarian = tested on: OVCAR-8 ovarian
HS 578T breast = tested on: HS 578T breast
MALME-3M melanoma = tested on: MALME-3M melanoma
UO-31 renal = tested on: UO-31 renal
HCC-2998 colon = tested on: HCC-2998 colon
MDA-MB-231 breast = tested on: MDA-MB-231 breast
U251 CNS = tested on: U251 CNS
CAKI-1 renal = tested on: CAKI-1 renal
HOP-92 NSCLC = tested on: HOP-92 NSCLC
HL-60(TB) leukemia = tested on: HL-60(TB) leukemia

| SMILES | TGI (OVCAR-8 ovarian) | TGI (HS 578T breast) [µM] | TGI (MALME-3M melanoma) | TGI (UO-31 renal) | TGI (HCC-2998 colon) | TGI (MDA-MB-231 breast) [µM] | TGI (U251 CNS) | TGI (CAKI-1 renal) | TGI (HOP-92 NSCLC) | TGI (HL-60(TB) leukemia) | GI50 (OVCAR-8 ovarian) | GI50 (MALME-3M melanoma) | GI50 (UO-31 renal) [µM] | GI50 (HCC-2998 colon) [µM] | GI50 (MDA-MB-231 breast) [µM] | GI50 (U251 CNS) [µM] | GI50 (CAKI-1 renal) [µM] | GI50 (HOP-92 NSCLC) | GI50 (HL-60(TB) leukemia) [µM] | GI50 (HS 578T breast) [µM] |
| --- | --- | --- | --- | --- | --- | --- | --- | --- | --- | --- | --- | --- | --- | --- | --- | --- | --- | --- | --- | --- |
| CC(=O)OCCc1cc2ccccc2oc1=O | > 100 µM | > 100 | > 100 µM | > 100 µM | > 100 µM | > 100 | > 100 µM | > 100 µM | > 100 µM | > 100 µM | – | – | – | – | – | – | – | – | – | – |
| COc1cc(OC)c(OC)cc1/C=C\c1ccnc2ccccc12 | > 100 µM | 1.15 | > 100 µM | > 80.6 µM | 17.8 µM | 28.8 | 16.5 µM | > 79.5 µM | 45 µM | 5 µM | – | – | – | – | – | – | – | – | – | – |
| Cc1cc(=O)[nH]c2c1C(=O)c1c(C)cc(=O)n(C)c1C2=O | 0.207 µM | 0.154 | 0.00494 µM | 0.318 µM | 0.058 µM | 0.789 | 0.242 µM | 0.258 µM | – | 0.374 µM | – | – | – | – | – | – | – | – | – | – |
| Nc1nc2c(ncn2C2OC(CO)C(O)C2O)c(=O)[nH]1 (stereo not given) | > 100 µM and 204 µM | – | 55.4 µM and 285 µM | > 100 µM and 204 µM | > 100 µM and 245 µM | > 100 | > 100 µM and 237 µM | > 100 µM and 214 µM | > 100 µM and 263 µM | > 100 µM and 99.7 µM | > 100 µM and 15 µM | 24.1 µM and 176 µM | > 100 | 78.7 | > 100 | > 100 | 55.5 | > 100 µM and 82.5 µM | > 100 | – |
| Cc1ncc([N+](=O)[O-])n1CCOc1ccc(C(=O)/C=C/c2ccc(C(F)(F)F)cc2)cc1 | 5.57 µM | 33.3 | – | 2.87 µM | 18.3 µM | 15.5 | 3.08 µM | 5.25 µM | – | 11.4 µM | 2.09 µM | – | 1.48 | 5.85 | 3.53 | 1.51 | 2 | – | 2.91 | 5.2 |
| CC(C)OC(=O)c1cc(NC(=S)OC(C)C)ccc1Cl | > 64.8 µM | > 79.8 | > 56.9 µM | 54.3 µM | > 57.5 µM | 30.4 | > 57.6 µM | 35.3 µM | 46.4 µM | > 31.6 µM | – | – | – | – | – | – | – | – | – | – |
| NCC[PH+](c1ccccc1)c1ccccc1.NCC[PH+](c1ccccc1)c1ccccc1.[Cl-].[Pt+4] | > 100 µM | > 100 | > 100 µM | > 100 µM | > 100 µM | > 100 | > 100 µM | > 100 µM | > 100 µM | > 57.8 µM | > 100 µM | > 100 µM | > 100 | > 100 | > 100 | 39.3 | > 100 | > 100 µM | 1.8 | 99.6 |
| Cn1cc(C2=C(c3cccc([N+](=O)[O-])c3)C(=O)NC2=O)c2ccccc21 | > 22.4 µM | > 25 | > 25 µM | > 25 µM | > 25 µM | > 25 | > 25 µM | > 25 µM | > 20.6 µM | 19.1 µM | 6.81 µM | 13.6 µM | 6.46 | 14.5 | 6.42 | 5.9 | 5.5 | 4.22 µM | 7.14 | 2.14 |
| Nc1nc2c([nH]1)c1[nH]c3ccccc3c1c1[nH]c3ccccc3c21 | 23.7 µM | 53.9 | 4.45 µM | 22.9 µM | 5.75 µM | 16.9 | 14.3 µM | 29.5 µM | 22.2 µM | 38.1 µM | 4.56 µM | 1.86 µM | 11 | 2.26 | 4.39 | 3.99 | 16 | 9.12 µM | 18.4 | 20.4 |
| O=C(NCCNC1=CC(=O)c2nc3ccccc3c3ccnc1c23)c1cnccn1 | > 100 µM | > 100 | > 100 µM | > 100 µM | > 100 µM | > 100 | > 100 µM | 50.9 µM | > 100 µM | > 100 µM | 24.3 µM | 18.2 µM | 62.4 | 27.6 | 58.5 | 31 | 15.8 | 16.1 µM | 42.8 | 32.7 |
| CN(Cc1cnc2nc(N)nc(N)c2n1)c1c(Cl)cc(C(=O)NC(CCC(=O)O)C(=O)O)cc1Br (stereo not given) | > 100 µM | > 100 | > 100 µM | – | 0.153 µM | > 100 | > 100 µM | 0.0671 µM | > 100 µM | > 100 µM | < 0.01 µM | 0.0322 µM | < 0.01 | < 0.01 | – | < 0.0237 | < 0.01 | > 100 µM | < 0.01 | 17.8 |
| CC1(C)N=C(N)N=C(N)N1c1ccc(CCCCCCc2ccc(S(=O)(=O)F)cc2)cc1 | 7.01 µM | 30.5 | 3.79 µM | 29.5 µM | 16 µM | 16.5 | 16.6 µM | 44.3 µM | 3.15 µM | > 37.3 µM | – | – | – | – | – | – | – | – | – | – |
| O=C([CH-]C(=O)c1ccccc1)c1ccccc1.[CH2-]C.[CH2-]C.[Tl+3] | > 86.5 µM | > 100 | > 76.7 µM | > 77.2 µM | > 100 µM | > 100 | > 100 µM | > 96.3 µM | > 72.8 µM | 21.6 µM | 15.7 µM | 21.3 µM | 22.3 | 28.7 | > 100 | 11.8 | 27.2 | 21.6 µM | 2.99 | 31.7 |
| O=[N+]([O-])/C=C/c1cn(CCCCCCCCn2cc(/C=C/[N+](=O)[O-])c3ccccc32)c2ccccc12 | > 10 µM | > 10 | > 10 µM | > 10 µM | > 10 µM | > 10 | – | > 10 µM | > 10 µM | > 10 µM | – | – | – | – | – | – | – | – | – | – |
